Key:
[1] = system: human knee cartilage explants; assay: Aggrecan/sGAG biosynthesis rate (35S-sulfate incorporation) in human knee cartilage explants; type: cell-based
Protocol: (§1) Cartilage was harvested from the knee joint of a donor. Cartilage explants were equilibrated in culture media for 2 days after harvest. […] These were cut down to 1 mm thickness and allowed to equilibrate for a further 2 days before the experiment was set up. Subsets of the experiment were terminated at 3 days and 7 days from the start of the experiment. Media changes were performed every 2 to 3 days.
For the 3-day termination experiment, chondrocyte biosynthesis rate (primarily aggrecan synthesis) was measured between days 0 and 3 of the experiment using a 35S-sulfate radiolabel. For the 7-day termination experiment, this measurement was done between days 5 and 7. Statistics: 1-way ANOVA with post-hoc Tukey's HSD test.
as §1, with “for 3” for “for 2”, “further 3” for “further 2”
Cartilage explants that were equilibrated in culture medium post-harvest were transferred to ultra-low attachment cell culture plates (Corning) for dose response experiments. All experiments were carried out in low glucose, serum free medium (same composition as equilibration medium). Previous studies studying the effects of IGF-1 on cartilage explants have used doses ranging from 10 ng/ml to 300 ng/ml. Based on these, 300 ng/ml (equivalent to 39.2 nM) of free recombinant human IGF-1 (PeproTech, Rocky Hill, NJ) was used as the positive control.
Since each fusion protein had one IGF-1 domain, equivalent doses (39.2 nM) of these were tested. In addition to this, 500 nM, 1 μM and 2 μM doses of fusion proteins were also tested. In all cases, only a single dose of the fusion proteins was added at the start of the experiment, and media changes were carried out without fusion proteins once every 2 to 3 days thereafter. In contrast, continuous doses of free IGF-1 were used for the positive control. An untreated control group was also included in the experiments. Experiments were terminated at 3-day, 7-day and 15-day time points. Outcome measures included the biosynthesis rate of sulfated glycosaminoglycans (sGAG), explant metabolic rate, sGAG loss to the culture medium and the explant sGAG content at the end of the experiment.
The metabolic rate of cartilage explants was measured using the Alamar Blue assay (ThermoFisher). Cartilage explants were incubated for 3 hours in a 1× solution of Alamar Blue dissolved in culture medium. At the end of the incubation period, the absorbance of the medium at 570 nm and 600 nm was measured using a microplate reader (Synergy H1 Hybrid Multi-Mode Microplate Reader, BioTek). These readings were used to calculate the percentage reduction of Alamar Blue, which is directly proportional to the explant metabolic rate. These values were first normalized by individual explant weights. Following this, the weight-normalized readings for the treatment groups were normalized by the weight-normalized mean value for the untreated controls. To measure the chondrocyte biosynthesis rate of sulfated glycosaminoglycans (sGAGs), cartilage explants were cultured in the presence of 10 μCi/mL 35S-sulfate radiolabel during the final two days of each experiment. Following this, the explants were washed with PBS with non-radioactive sulfate to wash out excess radiolabel, weighed and digested with proteinase K. A liquid scintillation counter (PerkinElmer) was used to measure the amount of radiolabel incorporated within the extracellular matrix of the tissues. Radiolabel incorporation data were normalized by the duration of exposure to radiolabel and by the wet weight of the explants (Li et al., Osteoarthritis and Cartilage 23(2):266-274 (2015)). […]

[2] = system: human ankle cartilage explants; assay: Quantitative uptake of fusion proteins in human ankle cartilage (uptake ratio); type: in vitro ADME; settings: 1 μM in PBS + 1% BSA
Protocol: Cartilage explants were incubated in 250 μL of 1 μM solutions of different fusion proteins dissolved in 1×PBS+1% BSA for either 36 hours (FIG. 4A) or for 108 hours (FIG. 4B) (4.5 days). A group with free +9 GFP dissolved in 1×PBS+1% BSA (1 μM concentration) was included as a control for each of these two time points. An additional untreated control was included in these experiments. Cartilage explants were incubated in plain 1×PBS+1% BSA to account for and to correct for any autofluorescence effects. At the end of the incubation in the 1×PBS+1% BSA: The explants were transferred to a 10×PBS+1% BSA bath for 48 hours. The purpose of this was to desorb the GFPs taken up by the explants. The amount of GFPs left behind in the […] bath was quantified through fluorescence measurements. The desorption step in 10×PBS+1% BSA was followed by a second desorption step using fresh 10×PBS+1% BSA just to ensure any GFPs left in the explant after the 1st desorption come out. At the end of each desorption step, the fluorescence of the 10×PBS+1% BSA bath was measured. After the 2nd desorption step, the explants were digested in Proteinase K and their fluorescence was measured. The uptake ratio for the 36 hour and 108 hour experiments was calculated as (FIG. 4C): […]
Cartilage explants that had been equilibrated in culture medium post-harvest were transferred to sterile PBS and allowed to equilibrate for 1 hour before the start of the experiments. Sterile PBS solutions containing 1% bovine serum albumin (BSA) were prepared. Following this, 1 μM solutions of (+9GFP), (+9GFP)-(GGGGS)4-(IGF-1) (SEQ ID NO: 7), (+9GFP)-(EAAAK)3-(IGF-1) (SEQ ID NO: 8) and (+9GFP)-(GGGGS)3-(IGF-1) (SEQ ID NO: 9) were prepared. The BSA was included in the PBS to minimize loss of GFPs in the solution caused by non-specific binding to the plasticware. […] In contrast, use of polypropylene with 1% BSA enabled complete recovery of fluorescence.
At the end of the incubation period, cartilage explants were washed with PBS and transferred to a solution of 10×PBS+1% BSA for desorption. At the same time, the fluorescence of the absorption bath was measured using a plate reader (Synergy H1, Biotek Instruments Inc.) (excitation: 485 nm, emission: 528 nm). […] At the end of the desorption in 10×PBS+1% BSA, cartilage explants were weighed, and the fluorescence of the desorption bath was measured. This fluorescence measurement was used with a standard curve and the explant wet weights to calculate the concentration of GFP inside cartilage explants (mol/mg wet weight). The uptake ratio was calculated as the ratio of GFP concentration inside cartilage (mol/mg wet weight) to the final absorption bath concentration (mol/mL).

[3] = Experiment 1, knee, donor, single 500 nM dose, 3-day time point (days 0-3)
[4] = Experiment 2, knee, donor, single 2 μM dose, 3-day time point
[5] = Experiment 2, knee, single 1 μM dose, 7-day time point
[6] = Experiment 2, knee, single 2 μM dose, 7-day time point

Row | Substance | aggrecan biosynthesis rate compared to the untreated control ([1]; Experiment 1, knee, donor, continuous 40 nM free IGF-1, 3-day time point) | aggrecan biosynthesis rate compared to the untreated control ([1]; Experiment 1, knee, continuous 40 nM free IGF-1, 7-day time point) | aggrecan biosynthesis rate compared to the untreated control ([1]; Experiment 2, knee, continuous 40 nM free IGF-1, 3-day time point) | aggrecan biosynthesis rate compared to the untreated control ([1]; Experiment 2, knee, continuous 40 nM free IGF-1, 7-day time point) | aggrecan biosynthesis rate compared to the untreated control [1, 3] | aggrecan biosynthesis rate compared to the untreated control ([1]; Experiment 2, knee, donor, single 1 μM dose, 3-day time point) | aggrecan biosynthesis rate compared to the untreated control [1, 4] | aggrecan biosynthesis rate compared to the untreated control [1, 5] | aggrecan biosynthesis rate compared to the untreated control [1, 6] | aggrecan biosynthesis rate compared to the untreated control ([1]; Experiment 1, knee, donor, single 2 μM dose, 3-day time point) | mean aggrecan biosynthesis rate at Day 7 versus Day 3 ([1]; Experiment 1, knee, single 500 nM and 2 μM doses on Day 0) | aggrecan biosynthesis rate compared to the untreated control ([1]; Experiment 1, knee, single 500 nM dose, 7-day time point (days 5-7)) | aggrecan biosynthesis rate compared to the untreated control ([1]; Experiment 1, knee, single 2 μM dose, 7-day time point) | aggrecan biosynthesis rate compared to the untreated control ([1]; Experiment 2, knee, donor, single 500 nM dose, 3-day time point) | Uptake ratio (Mean) ([2]; 36 hr) | Uptake ratio (Mean) ([2]; 108 hr)
1 | IGF-1: free recombinant human IGF-1 (PeproTech), pro-anabolic growth factor used as the positive control | significantly higher | significantly higher | statistically significantly higher | statistically significantly higher |  |  |  |  |  |  |  |  |  |  |  | 
2 | (+9GFP)-(EAAAK)3-(IGF-1): fusion protein of +9 GFP and human IGF-1 with rigid (EAAAK)3 linker, SEQ ID NO: 8 |  |  |  |  | not statistically significantly different | statistically significantly higher | statistically significantly higher | statistically significantly higher | statistically significantly higher |  |  |  |  |  |  | 
3 | (+9GFP)-(GGGGS)4-(IGF-1): fusion protein of +9 GFP and human IGF-1 with flexible (GGGGS)4 linker, SEQ ID NO: 7 |  |  |  |  | significantly higher |  | statistically significantly higher | statistically significantly higher | statistically significantly higher | not statistically significantly different | the same as the rate on Day 3 | not statistically significantly different | not statistically significantly different | statistically significantly higher | 12.7 | 18.3

— US12653899B2, “Multi-targeted, tunable, sustained delivery of payloads to charged avascular tissues” (Massachusetts Institute of Technology, priority 2019, dated 2026)
